Results: ChEMBL document CHEMBL1201862, “PubChem BioAssay data set” (2004)
The source made the active and inactive calls.

Tests used:
[1] = target: T1, Caspase-3 (Homo sapiens, UniProt P42574); assay: inhibition of recombinant caspase-3 activity – biochemical, luminescence, set 2, selectivity assay for SENP protease inhibitor project, SAR follow-up (AID 588599); type: functional
T1 sequence (P42574 whole entry): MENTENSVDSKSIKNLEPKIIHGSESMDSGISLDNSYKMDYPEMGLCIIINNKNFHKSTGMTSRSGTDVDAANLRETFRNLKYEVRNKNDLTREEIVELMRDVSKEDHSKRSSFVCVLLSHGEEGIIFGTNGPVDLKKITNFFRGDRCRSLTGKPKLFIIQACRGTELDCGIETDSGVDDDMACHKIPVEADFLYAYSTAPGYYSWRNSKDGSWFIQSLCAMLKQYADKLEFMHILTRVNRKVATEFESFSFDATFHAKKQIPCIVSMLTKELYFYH

[2] = target: T2, Sentrin-specific protease 8 (Homo sapiens, UniProt Q96LD8); assay: inhibition of sentrin protease 8 – biochemical, luminescence, set 2, SAR follow-up (AID 588601); type: functional
T2 sequence (Q96LD8 whole entry): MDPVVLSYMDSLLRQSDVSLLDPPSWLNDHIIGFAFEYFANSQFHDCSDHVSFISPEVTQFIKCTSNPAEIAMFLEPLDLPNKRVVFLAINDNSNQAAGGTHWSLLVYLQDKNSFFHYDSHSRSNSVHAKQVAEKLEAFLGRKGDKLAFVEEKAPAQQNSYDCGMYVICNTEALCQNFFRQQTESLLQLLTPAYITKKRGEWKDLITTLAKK

[3] = target: T3, Sentrin-specific protease 7 (Homo sapiens, UniProt Q9BQF6); assay: inhibition of human SENP7 cleavage activity – biochemical, luminescence, set 2, SAR follow-up (AID 588600); type: functional
T3 sequence (Q9BQF6 whole entry): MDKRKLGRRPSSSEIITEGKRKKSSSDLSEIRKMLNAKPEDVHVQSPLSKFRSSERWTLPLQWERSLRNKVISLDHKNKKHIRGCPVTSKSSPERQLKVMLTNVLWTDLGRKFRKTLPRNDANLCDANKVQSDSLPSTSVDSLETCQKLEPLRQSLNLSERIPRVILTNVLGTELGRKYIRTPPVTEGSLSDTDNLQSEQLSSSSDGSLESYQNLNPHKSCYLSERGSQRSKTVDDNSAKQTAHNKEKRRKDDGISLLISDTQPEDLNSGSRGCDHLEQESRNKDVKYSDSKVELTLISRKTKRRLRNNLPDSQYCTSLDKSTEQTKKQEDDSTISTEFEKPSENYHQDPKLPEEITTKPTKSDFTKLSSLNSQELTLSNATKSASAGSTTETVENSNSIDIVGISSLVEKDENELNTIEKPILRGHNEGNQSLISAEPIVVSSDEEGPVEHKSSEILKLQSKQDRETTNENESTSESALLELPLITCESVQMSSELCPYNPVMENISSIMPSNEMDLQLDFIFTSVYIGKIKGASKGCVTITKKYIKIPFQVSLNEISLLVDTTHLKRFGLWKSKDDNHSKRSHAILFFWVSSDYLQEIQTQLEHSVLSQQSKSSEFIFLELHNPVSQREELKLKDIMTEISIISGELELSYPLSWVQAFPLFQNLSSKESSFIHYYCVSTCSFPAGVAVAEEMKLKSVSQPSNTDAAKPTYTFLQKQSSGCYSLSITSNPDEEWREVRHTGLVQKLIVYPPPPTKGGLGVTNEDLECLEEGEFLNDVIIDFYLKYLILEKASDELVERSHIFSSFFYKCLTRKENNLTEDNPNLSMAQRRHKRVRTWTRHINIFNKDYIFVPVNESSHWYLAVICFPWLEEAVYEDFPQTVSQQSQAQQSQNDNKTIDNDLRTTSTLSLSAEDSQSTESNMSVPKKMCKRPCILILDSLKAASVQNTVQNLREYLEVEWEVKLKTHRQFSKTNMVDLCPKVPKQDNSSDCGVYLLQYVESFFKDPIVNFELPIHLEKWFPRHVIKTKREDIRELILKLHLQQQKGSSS

[4] = target: T4, Sentrin-specific protease 6 (Homo sapiens, UniProt Q9GZR1); assay: inhibition of human SENP6 catalytic domain – biochemical, luminescence, set 2, SAR follow-up (AID 588598); type: functional
T4 sequence (Q9GZR1 whole entry): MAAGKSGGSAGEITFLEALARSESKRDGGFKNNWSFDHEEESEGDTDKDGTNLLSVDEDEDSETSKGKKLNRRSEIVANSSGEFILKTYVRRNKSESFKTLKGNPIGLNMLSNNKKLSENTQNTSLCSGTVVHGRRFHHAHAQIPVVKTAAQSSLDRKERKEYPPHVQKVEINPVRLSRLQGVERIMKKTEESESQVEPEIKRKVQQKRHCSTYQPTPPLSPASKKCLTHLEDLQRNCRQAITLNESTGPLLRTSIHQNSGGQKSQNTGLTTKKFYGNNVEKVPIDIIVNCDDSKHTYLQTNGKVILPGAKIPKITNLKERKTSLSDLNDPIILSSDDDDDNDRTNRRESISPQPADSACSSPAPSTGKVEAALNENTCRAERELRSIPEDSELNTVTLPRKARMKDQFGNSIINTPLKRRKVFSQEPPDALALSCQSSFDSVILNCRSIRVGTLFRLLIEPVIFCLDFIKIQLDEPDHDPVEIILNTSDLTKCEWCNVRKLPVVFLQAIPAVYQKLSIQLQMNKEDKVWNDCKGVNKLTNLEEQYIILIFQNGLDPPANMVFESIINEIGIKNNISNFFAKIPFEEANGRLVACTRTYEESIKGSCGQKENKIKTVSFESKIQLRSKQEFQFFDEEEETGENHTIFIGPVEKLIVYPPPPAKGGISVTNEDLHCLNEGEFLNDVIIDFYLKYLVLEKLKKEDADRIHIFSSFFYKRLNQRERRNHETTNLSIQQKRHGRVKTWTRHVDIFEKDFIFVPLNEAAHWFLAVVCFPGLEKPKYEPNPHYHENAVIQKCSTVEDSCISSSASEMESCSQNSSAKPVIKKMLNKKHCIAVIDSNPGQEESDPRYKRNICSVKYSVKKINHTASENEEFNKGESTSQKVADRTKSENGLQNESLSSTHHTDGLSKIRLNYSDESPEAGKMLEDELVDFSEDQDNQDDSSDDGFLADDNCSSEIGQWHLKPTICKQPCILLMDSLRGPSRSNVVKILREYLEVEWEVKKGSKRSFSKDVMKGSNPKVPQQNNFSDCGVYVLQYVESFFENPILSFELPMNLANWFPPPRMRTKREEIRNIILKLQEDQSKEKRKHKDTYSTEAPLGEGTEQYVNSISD

[5] = target: Hexokinase-1 (Homo sapiens, UniProt P19367); assay: hexokinase 1 activity inhibitors, potency – biochemical, set 2, resazurin fluorescence coupled readout, selectivity assay for HKDC1 inhibitor project, SAR follow-up (AID 588356); type: functional
Sequence of Hexokinase-1 (P19367 whole entry): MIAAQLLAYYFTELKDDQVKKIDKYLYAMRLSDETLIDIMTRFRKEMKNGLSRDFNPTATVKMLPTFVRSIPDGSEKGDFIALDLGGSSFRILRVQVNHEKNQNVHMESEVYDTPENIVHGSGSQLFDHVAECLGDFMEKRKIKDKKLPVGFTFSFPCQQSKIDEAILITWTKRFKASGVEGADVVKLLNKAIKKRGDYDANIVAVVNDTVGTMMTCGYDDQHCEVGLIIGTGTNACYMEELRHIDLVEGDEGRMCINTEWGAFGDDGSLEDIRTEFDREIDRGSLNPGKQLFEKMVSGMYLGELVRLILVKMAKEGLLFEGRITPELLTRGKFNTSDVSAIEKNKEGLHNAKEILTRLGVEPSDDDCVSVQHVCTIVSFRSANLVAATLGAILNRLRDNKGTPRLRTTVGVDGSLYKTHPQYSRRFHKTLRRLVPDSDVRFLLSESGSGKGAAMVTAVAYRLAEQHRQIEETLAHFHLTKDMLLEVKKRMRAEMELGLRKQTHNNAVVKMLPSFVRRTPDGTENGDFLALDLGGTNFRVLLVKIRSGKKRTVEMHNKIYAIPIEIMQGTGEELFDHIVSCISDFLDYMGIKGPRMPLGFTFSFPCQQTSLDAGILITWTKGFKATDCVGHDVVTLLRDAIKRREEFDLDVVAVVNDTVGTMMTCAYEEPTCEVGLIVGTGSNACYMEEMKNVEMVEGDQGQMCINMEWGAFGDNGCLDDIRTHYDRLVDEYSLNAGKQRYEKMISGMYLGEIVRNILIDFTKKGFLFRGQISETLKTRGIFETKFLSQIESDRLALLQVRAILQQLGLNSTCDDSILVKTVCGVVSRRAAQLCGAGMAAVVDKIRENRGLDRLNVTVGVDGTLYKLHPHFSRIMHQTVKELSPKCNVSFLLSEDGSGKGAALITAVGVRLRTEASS

[6] = target: T5, Hexokinase HKDC1 (Homo sapiens, UniProt Q2TB90); assay: analog inhibition of human HKDC1 activity – biochemical, set 2, SAR follow-up (AID 588355); type: functional
T5 sequence (Q2TB90 whole entry): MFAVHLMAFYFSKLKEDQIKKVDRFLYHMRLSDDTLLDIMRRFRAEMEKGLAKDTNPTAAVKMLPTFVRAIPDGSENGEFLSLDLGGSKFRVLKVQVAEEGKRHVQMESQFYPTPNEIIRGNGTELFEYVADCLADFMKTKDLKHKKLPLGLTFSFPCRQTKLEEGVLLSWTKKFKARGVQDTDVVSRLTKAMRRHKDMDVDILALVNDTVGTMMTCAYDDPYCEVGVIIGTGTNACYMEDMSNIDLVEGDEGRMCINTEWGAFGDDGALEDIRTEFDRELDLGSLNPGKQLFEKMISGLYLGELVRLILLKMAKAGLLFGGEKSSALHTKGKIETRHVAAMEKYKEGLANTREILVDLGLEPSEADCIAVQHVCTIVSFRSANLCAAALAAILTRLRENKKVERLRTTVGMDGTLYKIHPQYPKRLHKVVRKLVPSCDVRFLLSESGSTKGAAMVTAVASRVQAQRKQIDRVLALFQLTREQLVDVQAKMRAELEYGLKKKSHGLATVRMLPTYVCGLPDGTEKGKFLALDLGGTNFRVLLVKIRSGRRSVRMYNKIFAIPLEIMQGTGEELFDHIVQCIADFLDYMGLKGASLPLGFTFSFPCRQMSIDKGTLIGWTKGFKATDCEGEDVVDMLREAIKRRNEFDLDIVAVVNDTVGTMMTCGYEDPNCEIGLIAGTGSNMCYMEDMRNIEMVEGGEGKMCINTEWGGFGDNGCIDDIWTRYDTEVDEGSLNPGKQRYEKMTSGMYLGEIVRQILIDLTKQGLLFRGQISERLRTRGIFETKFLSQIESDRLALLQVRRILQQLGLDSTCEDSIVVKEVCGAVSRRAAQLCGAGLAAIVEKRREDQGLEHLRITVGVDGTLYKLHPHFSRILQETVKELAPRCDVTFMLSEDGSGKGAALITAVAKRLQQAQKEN

[7] = target: Beta-galactosidase (Escherichia coli, UniProt Q8VNN2); assay: PubChem AID 485352; type: functional
Sequence of Beta-galactosidase (Q8VNN2 whole entry): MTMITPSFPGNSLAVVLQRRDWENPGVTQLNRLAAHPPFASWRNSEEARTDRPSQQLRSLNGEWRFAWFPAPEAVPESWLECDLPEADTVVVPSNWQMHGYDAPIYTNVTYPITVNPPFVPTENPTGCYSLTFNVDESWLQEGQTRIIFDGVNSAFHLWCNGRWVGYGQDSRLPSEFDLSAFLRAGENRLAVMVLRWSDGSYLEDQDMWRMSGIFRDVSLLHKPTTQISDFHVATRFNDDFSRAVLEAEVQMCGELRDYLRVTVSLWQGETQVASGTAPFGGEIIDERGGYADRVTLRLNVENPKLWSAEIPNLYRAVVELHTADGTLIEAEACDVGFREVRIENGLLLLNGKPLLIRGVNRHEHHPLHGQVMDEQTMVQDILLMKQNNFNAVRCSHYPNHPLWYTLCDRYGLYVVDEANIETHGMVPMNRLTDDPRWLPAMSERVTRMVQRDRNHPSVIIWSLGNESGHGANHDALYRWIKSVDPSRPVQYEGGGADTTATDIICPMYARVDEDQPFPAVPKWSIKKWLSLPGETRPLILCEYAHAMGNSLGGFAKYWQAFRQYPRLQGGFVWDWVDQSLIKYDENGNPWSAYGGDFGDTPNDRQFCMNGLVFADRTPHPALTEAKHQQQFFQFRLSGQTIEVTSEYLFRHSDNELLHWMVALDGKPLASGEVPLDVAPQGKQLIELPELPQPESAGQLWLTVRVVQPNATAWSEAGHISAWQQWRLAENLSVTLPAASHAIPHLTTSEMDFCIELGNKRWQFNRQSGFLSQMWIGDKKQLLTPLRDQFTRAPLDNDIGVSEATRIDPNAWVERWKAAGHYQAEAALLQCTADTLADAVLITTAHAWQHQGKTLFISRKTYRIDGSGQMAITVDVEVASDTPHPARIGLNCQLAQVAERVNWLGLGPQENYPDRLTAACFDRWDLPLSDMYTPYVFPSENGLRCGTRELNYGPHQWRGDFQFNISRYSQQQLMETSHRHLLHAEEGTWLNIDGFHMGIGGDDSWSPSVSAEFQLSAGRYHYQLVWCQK

[8] = target: Type-1 angiotensin II receptor (Homo sapiens, UniProt P30556); assay: antagonism of angiotensin II type 1 receptor – cell-based, uHTS hits, selectivity assay for APJ receptor antagonist project, dose response (AID 463214); type: functional;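 further: antagonist potency against angiotensin II stimulated AT1 response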
Sequence of Type-1 angiotensin II receptor (P30556 whole entry): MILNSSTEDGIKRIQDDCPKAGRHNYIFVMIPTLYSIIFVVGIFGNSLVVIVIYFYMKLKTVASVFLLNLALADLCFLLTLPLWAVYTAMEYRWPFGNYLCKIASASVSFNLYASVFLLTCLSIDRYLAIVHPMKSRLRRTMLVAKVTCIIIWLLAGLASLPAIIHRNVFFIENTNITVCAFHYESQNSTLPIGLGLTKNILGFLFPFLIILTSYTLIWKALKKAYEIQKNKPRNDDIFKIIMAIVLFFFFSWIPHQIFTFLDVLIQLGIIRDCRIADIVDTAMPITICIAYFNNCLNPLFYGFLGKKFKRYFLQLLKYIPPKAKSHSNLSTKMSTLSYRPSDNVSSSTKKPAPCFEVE

[9] = target: T6, Bcl-2-related protein A1 (Mus musculus, UniProt Q07440); type: functional;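 further: confirmatory dose–response counterscreen on Bfl-1, used to check hits from a UBC13 polyubiquitin inhibitor campaign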
T6 sequence (Q07440 whole entry): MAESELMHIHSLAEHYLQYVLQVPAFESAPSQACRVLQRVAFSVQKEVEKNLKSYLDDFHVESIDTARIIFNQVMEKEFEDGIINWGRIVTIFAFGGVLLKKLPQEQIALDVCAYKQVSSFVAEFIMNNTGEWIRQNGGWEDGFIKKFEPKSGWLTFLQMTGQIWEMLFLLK

[10] = target: T7, Ubiquitin-conjugating enzyme E2 N (Homo sapiens, UniProt P61088); type: functional;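 further: Dose-response confirmation in a TR-FRET assay detecting UBC13-driven polyubiquitin chain formation, inhibition measured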
T7 sequence (P61088 whole entry): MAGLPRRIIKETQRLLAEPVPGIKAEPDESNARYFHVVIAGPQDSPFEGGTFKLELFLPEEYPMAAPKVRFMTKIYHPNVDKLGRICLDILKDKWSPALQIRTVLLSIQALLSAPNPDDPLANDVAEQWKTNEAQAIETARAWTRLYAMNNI

[11] = target: Melanocortin receptor 4 (Homo sapiens, UniProt P32245); assay: inhibitors of MC4R cAMP signaling – cell-based, TR-FRET, biased antagonists, dose response (AID 602298); type: functional;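 further: antagonist potency against agonist-stimulated cAMP production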
Sequence of Melanocortin receptor 4 (P32245 whole entry): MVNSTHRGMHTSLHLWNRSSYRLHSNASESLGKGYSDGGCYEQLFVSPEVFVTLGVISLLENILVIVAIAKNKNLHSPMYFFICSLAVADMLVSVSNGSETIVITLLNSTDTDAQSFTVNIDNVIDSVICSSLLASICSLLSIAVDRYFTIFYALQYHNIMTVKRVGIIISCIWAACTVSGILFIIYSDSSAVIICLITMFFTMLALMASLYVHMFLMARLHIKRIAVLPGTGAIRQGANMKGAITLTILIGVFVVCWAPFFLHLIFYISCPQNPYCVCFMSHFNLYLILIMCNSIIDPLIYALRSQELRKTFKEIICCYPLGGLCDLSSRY

[12] = cAMP pathway inhibition in counterscreen cell line – TR-FRET cAMP detection, counter-screen for MC4R biased antagonist project, dose response (AID 602305); type: functional, cell-based;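 further: U2OS cells stimulated with forskolin near its EC80 as the cAMP inducer; potency is for inhibition of forskolin-stimulated cAMP signaling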
[13] = target: T8, DNA repair protein RAD52 homolog (Homo sapiens, UniProt P43351); type: functional, biochemical
T8 sequence (P43351 whole entry): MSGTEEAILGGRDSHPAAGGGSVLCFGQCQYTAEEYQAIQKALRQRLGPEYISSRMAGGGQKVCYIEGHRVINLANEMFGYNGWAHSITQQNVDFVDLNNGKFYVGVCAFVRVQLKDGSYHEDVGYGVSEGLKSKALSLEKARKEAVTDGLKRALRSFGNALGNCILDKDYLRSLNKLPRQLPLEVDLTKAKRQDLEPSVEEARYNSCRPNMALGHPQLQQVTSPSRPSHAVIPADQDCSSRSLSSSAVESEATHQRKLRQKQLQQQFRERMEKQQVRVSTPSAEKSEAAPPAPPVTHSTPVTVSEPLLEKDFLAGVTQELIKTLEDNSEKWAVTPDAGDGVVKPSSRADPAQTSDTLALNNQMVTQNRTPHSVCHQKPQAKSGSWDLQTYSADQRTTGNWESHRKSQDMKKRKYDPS

Cc1[nH]c2ccccc2c1C(=O)C(=O)N1CCCCCC1
IC50 [1]: > 99 µM (inactive) | IC50 [2]: > 99 µM (inactive) | IC50 [3]: > 99 µM (inactive) | IC50 [4]: > 99 µM (inactive)

Cc1ccccc1NC1c2ccccc2C(=O)N1c1ccccc1C (stereo not drawn)
IC50 [5]: > 80 µM (inactive) | IC50 [6]: > 80 µM (inactive)

CCC[C@@H](CN1CCC[C@H]1CN1C(N)=NC[C@H]1CC(C)C)N1C[C@@H](Cc2ccccc2)N(CCc2ccc(Cl)c(Cl)c2)C1=N
EC50 [7]: > 40 µM (inactive) | IC50 [8]: > 40 µM (not active) | IC50 [9]: > 20 µM (inactive) | IC50 [10]: 12.5 µM (active) | IC50 [11]: 7.65 µM (active) | IC50 [12]: > 64.6 µM (inactive) | AC50 [13]: 14.7 µM (active)
